Test results: article PMC5572662 (ChemMedChem, 2017)
Entries after “also recorded” stand apart in the source; their conditions may differ. Square brackets hold non-standard residues; d marks the D form. Peptide text beside a SMILES is read from it. * marks the point of attachment. NH(4-amidinobenzyl) = N=C(N)c1ccc(CN*)cc1; Tle = CC(C)(C)[C@H](N)C(=O)O; PhAc = O=C(Cc1ccccc1)*

Assays:
[1] = system: Semliki Forest virus (SFV); experiment: Semliki Forest virus replication in BHK-21 cells, titers by plaque assay; assay type: cell-based; conditions: for reduction of SFV virus titer: 25 μM inhibitor, MOI 0.01, plaque assay 24 h post-infection
[2] = biological target: recombinant soluble human furin (Homo sapiens, UniProt P09958); experiment: Enzyme kinetic measurements with recombinant soluble human furin; assay type: biochemical; conditions: for fold improved Ki (inhibition constant) versus parent analogue: 20 versus 18 (P3 Val to Tle), 21 and 22 versus the P2 Lys analogues; for Ki: Furin Ki, as given in the text in nM
[3] = system: Pseudomonas aeruginosa exotoxin A; conditions: living rodents ref 8; cited from earlier work
[4] = system: anthrax toxin; conditions: living rodents ref 8; cited from earlier work
[5] = system: chikungunya virus (CHIKV); experiment: Chikungunya virus replication in BHK-21 cells, titers by plaque assay; assay type: cell-based; conditions: 25 μM inhibitor, MOI 0.1, plaque assay 24 h post-infection
[6] = system: E3-E2 (p62) cleavage; experiment: Western blot of E3-E2; assay type: cell-based, Semliki Forest virus; conditions: 25 μM inhibitor, BHK-21 cells, SFV MOI 10, 8 h post-infection

Chain of recombinant soluble human furin (P09958 108-715 limits assumed): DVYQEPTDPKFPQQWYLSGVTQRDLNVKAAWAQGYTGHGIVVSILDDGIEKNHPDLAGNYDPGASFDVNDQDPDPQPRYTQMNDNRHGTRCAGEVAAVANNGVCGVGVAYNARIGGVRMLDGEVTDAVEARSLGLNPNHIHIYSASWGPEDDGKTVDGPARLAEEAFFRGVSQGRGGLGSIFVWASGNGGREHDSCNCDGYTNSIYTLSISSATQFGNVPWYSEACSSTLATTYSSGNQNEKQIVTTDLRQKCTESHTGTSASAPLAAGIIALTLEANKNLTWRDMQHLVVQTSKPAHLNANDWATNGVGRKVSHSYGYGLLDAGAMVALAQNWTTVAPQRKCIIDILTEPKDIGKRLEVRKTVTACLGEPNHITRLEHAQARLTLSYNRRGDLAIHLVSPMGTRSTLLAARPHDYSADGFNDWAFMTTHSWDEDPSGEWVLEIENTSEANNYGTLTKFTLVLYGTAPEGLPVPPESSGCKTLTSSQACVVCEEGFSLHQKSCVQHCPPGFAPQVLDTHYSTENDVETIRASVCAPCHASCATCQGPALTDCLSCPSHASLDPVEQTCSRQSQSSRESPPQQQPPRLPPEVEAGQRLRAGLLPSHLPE

Row | Compound | fold improved Ki (inhibition constant) versus parent analogue [2] | Ki [2] [nM] | other results
1 | CC(C)[C@H](NC(=O)[C@H](CCCNC(=N)N)NC(=O)[C@H](CCCNC(=N)N)NC(=O)[C@H](CCCNC(=N)N)NC(=O)Cc1ccccc1)C(=O)N[C@@H](CCCNC(=N)N)C(=O)NCc1ccc(C(=N)N)cc1 [Compound 5, Phac-Arg-Arg-Arg-Val-Arg-4-Amba] (PhAc-RRRVR-{NH(4-amidinobenzyl)}) | – | – | reduction of SFV virus titer [1]: less than one order of magnitude
2 | CC(=O)N[C@@H](CC(C)C)C(=O)N[C@@H](CC(C)C)C(=O)N[C@@H](CC(C)C)C(=O)N[C@@H](CC(C)C)C(=O)N[C@@H](CCCNC(=N)N)C(=O)N[C@H](C(=O)N[C@@H](CCCNC(=N)N)C(=O)NCc1ccc(C(=N)N)cc1)C(C)(C)C [Compound 22, Ac-Leu-Leu-Leu-Leu-Arg-Tle-Arg-4-Amba] (Ac-LLLLR[Tle]R-{NH(4-amidinobenzyl)}) | ~ 2 fold | – | –
3 | CC(=O)N[C@@H](CC(C)C)C(=O)N[C@@H](CC(C)C)C(=O)N[C@@H](CC(C)C)C(=O)N[C@@H](CC(C)C)C(=O)N[C@@H](CCCN=C(N)N)C(=O)N[C@H](C(=O)N[C@@H](CCCCN)C(=O)NCc1ccc(C(=N)N)cc1)C(C)C [Compound 18, Ac-Leu-Leu-Leu-Leu-Arg-Val-Lys-4-Amba, reference compound] (Ac-LLLLRVK-{NH(4-amidinobenzyl)}) | – | ~0.5 | –
4 | CC(C)[C@H](NC(=O)Cc1cccc(CN)c1)C(=O)N[C@@H](CCCNC(=N)N)C(=O)NCc1ccc(C(=N)N)cc1 [Compound 23, 3-AMe-Phac-Val-Arg-4-Amba] | – | 48.2 | –
5 | CC(C)[C@H](NC(=O)Cc1ccc(CN)cc1)C(=O)N[C@@H](CCCNC(=N)N)C(=O)NCc1ccc(C(=N)N)cc1 [Compound 24, 4-AMe-Phac-Val-Arg-4-Amba] | – | 37.8 | –
6 | CC(=O)N[C@@H](CC(C)C)C(=O)N[C@@H](CC(C)C)C(=O)N[C@@H](CC(C)C)C(=O)N[C@@H](CC(C)C)C(=O)N[C@@H](CCCNC(=N)N)C(=O)N[C@H](C(=O)N[C@@H](CCCCN)C(=O)NCc1ccc(C(=N)N)cc1)C(C)(C)C [Compound 20, Ac-Leu-Leu-Leu-Leu-Arg-Tle-Lys-4-Amba] (Ac-LLLLR[Tle]K-{NH(4-amidinobenzyl)}) | 2.5 fold | – | –
7 | CC(=O)N[C@H](CC(C)C)C(=O)N[C@@H](CC(C)C)C(=O)N[C@@H](CC(C)C)C(=O)N[C@@H](CC(C)C)C(=O)N[C@@H](CCCNC(=N)N)C(=O)N[C@H](C(=O)N[C@@H](CCCCN)C(=O)NCc1ccc(C(=N)N)cc1)C(C)C [Compound 19, Ac-DLeu-Leu-Leu-Leu-Arg-Val-Lys-4-Amba, reference compound] (Ac-[dL]LLLRVK-{NH(4-amidinobenzyl)}) | – | ~0.5 | –
8 | CC(=O)N[C@@H](CC(C)C)C(=O)N[C@@H](CC(C)C)C(=O)N[C@@H](CC(C)C)C(=O)N[C@@H](CC(C)C)C(=O)N[C@@H](CCCNC(=N)N)C(=O)N[C@H](C(=O)N[C@@H](CCCNC(=N)N)C(=O)NCc1ccc(C(=N)N)cc1)C(C)C [Compound 21, Ac-Leu-Leu-Leu-Leu-Arg-Val-Arg-4-Amba] (Ac-LLLLRVR-{NH(4-amidinobenzyl)}) | ~ 2 fold | – | –
9 | hexa-D-arginine | – | – | protective effect against Pseudomonas aeruginosa exotoxin A [3]: protective effect; protective effect against anthrax toxin [4]: protective effect
10 | CC(C)[C@H](NC(=O)[C@H](CCCNC(=N)N)NC(=O)[C@H](CCCNC(=N)N)NC(=O)[C@H](N)CCCNC(=N)N)C(=O)N[C@@H](CCCNC(=N)N)C(=O)NCc1ccc(C(=N)N)cc1 [Compound 9, H-DArg-Arg-Arg-Val-Arg-4-Amba] (H-[dR]RRVR-{NH(4-amidinobenzyl)}) | – | – | reduction of CHIKV virus titer [5]: strongly reduced titers; reduction of SFV virus titer [1]: less than one order of magnitude; also recorded: strongly reduced titers; concentration dependence of inhibition of SFV replication ([1]; MOI 0.01, 24 h post-infection (Figure 4)): concentration-dependent inhibition of SFV replication; inhibition of E3-E2 (p62) cleavage [6]: Inhibition of E3-E2 (p62) cleavage
